Numbered stars: 1 amine (or outer) side, 2 acyl side, 3 side chain; on linkers, the order of the positions; unused ones are H or OH. Square brackets hold non-standard residues; d marks the D form. Peptide text beside a SMILES is read from it. * marks the point of attachment. Dolaproine = CO[C@@H]([C@@H]1CCCN1)[C@@H](C)C(=O)O; Hexanoyl(6-maleimido) = O=C1C=CC(=O)N1CCCCCC(=O)*; Dil = CC[C@H](C)[C@H](NC)[C@@H](CC(=O)O)OC; PABC = O=C(OCc1ccc(N[*:1])cc1)[*:2]; X1 = C[C@@H](N*)[C@@H](O)c1ccccc1; Cit = NC(=O)NCCC[C@H](N)C(=O)O; NMeV = CN[C@H](C(=O)O)C(C)C
Legend:
[1] = biological target: Sclerotium rolfsii lectin recombinant variant Rec-2, SEQ ID NO: 2 (Agroathelia rolfsii, UniProt A0A0M3KL30); test: O-Glycan array binding study (94 glycans)
[2] = system: human urinary bladder cancer cell line (T-24); test: Cytotoxicity assay, cell titer glow luminescence, 72 h; assay type: cell-based; conditions: 72 h
Protocol: (§1) T-24 Cell line were cultured in McCoy's 5a Medium Modified supplemented with 10% FBS and the PA-1 Cell line was cultured in EMEM Media supplemented with 10% FBS. The assay was performed by plating 5,000 cells/well and incubated at 37° C. overnight. […] Each concentration was added in triplicate and media-only wells used as a control. After incubation for 72 h cell titer glow (Promega) reagent (50 μL) was added to each well and the plates shaken for 5 mins and the luminescence was recorded. Percent viability was determined by dividing luminescence of the treated well by the non-treated well and multiplying by 100. Data was analysed using non-linear regression with a logarithmic scale.
(§2) 5,000 cells/well were plated and incubated at 37° C. overnight. Conjugates/vehicle control dilutions were made in respective media and added to cells. Volume added: 50 uL to each well. Starting treatment concentration was 1 uM for Conjugate of formula 16 and 18, and control SEQ ID NO: 5 alone and 10% for vehicle control (1×PBS with 20% DMA) and then diluted 10-fold down for a total of 11 treatment dilutions. Each concentration was analysed in triplicates. Media-only wells was used as a control to calculate percent viability. Cell titer glow reagent (volume: 50 uL) was added to each well, the plate was shaken for 5 mins and the luminescence was recorded. Drug Treatment Time: 72 hours. Percent viability was calculated by dividing the luminescence signal obtained for each treated well by the untreated well (media-only control) and multiplying by 100.

[3] = system: ovarian cancer cell line (PA-1); test: as above; assay type: cell-based; conditions: 72 h
Protocol: as §1, §2

AGS Stomach = test: Cytotoxic effect by MTT assay, 48 h; conditions: AGS, 48 h
Protocol: (§3) Cells were treated with Test Items at various concentrations (0.0001 μM-10 μM) for 48 h. The cells corresponding to Positive Control group were treated with Doxorubicin at a concentration ranging from 0.1 μM-100 μM. The Untreated cells were used as Control. After 48 h of incubation, the effect of Test Items on cytotoxicity of cells was determined by MTT assay, the plates were taken out and 20 μl of 5 mg/m1 of MTT 3-(4,5-dimethythiazol-2-yl)-2,5-diphenyl tetrazolium bromide solution was added to all the wells. Cells were incubated for 3 h at 37° C. The supernatant was aspirated. 150 μl of DMSO was added to each well to dissolve formazan crystals. The absorbance of each well was then read at 540 nm using Synergy HT micro plate reader.
(§4) The % Cytotoxicity was calculated using the formula:
(§5) Where, X=Absorbance of cells treated with Test Item; R=Absorbance of Control cells (Untreated cells maintained in growth medium only).
(§6) Selectivity Index was calculated using the formula:
(§7) SI=IC50 in Normal cell/IC50 in cancer cell.
(§8) Activity scores of the Selective Index values were categorized as: • Not selective (SI value ≤1) • Moderately selective (1<SI value <5) • Selective (SI value ≥5)

HT29 Colon = test: Cytotoxic effect by MTT assay, 48 h; conditions: for Percent cytotoxicity wrt control: 48 h
Protocol: as §3, §4, §5, §6, §7, §8

KB Cervix = test: Cytotoxic effect by MTT assay, 48 h; conditions: for Percent cytotoxicity wrt control: KB, 48 h
Protocol: as §3, §4, §5, §6, §7, §8

MDA-MB-231 Breast = test: Cytotoxic effect by MTT assay, 48 h; conditions: for Percent cytotoxicity wrt control: 48 h
Protocol: as §3, §4, §5, §6, §7, §8

MG-63 Bone = test: Cytotoxic effect by MTT assay, 48 h; conditions: for Percent cytotoxicity wrt control: 48 h
Protocol: as §3, §4, §5, §6, §7, §8

PA-1 Ovary = test: Cytotoxic effect by MTT assay, 48 h; conditions: for Percent cytotoxicity wrt control: 48 h
Protocol: as §3, §4, §5, §6, §7, §8

PANC-1 Pancreatic = test: Cytotoxic effect by MTT assay, 48 h; conditions: for Percent cytotoxicity wrt control: 48 h
Protocol: as §3, §4, §5, §6, §7, §8

T24 Bladder = test: Cytotoxic effect by MTT assay, 48 h; conditions: for Percent cytotoxicity wrt control: 48 h
Protocol: as §3, §4, §5, §6, §7, §8

U251 MG Brain = test: Cytotoxic effect by MTT assay, 48 h; conditions: for Percent cytotoxicity wrt control: U251 MG, 48 h
Protocol: as §3, §4, §5, §6, §7, §8

A549 Lungs = test: Cytotoxic effect by MTT assay, 48 h; conditions: for Percent cytotoxicity wrt control: 48 h
Protocol: as §3, §4, §5, §6, §7, §8

PBMC Normal = test: Cytotoxic effect by MTT assay, 48 h; conditions: for Percent cytotoxicity wrt control: PBMC, 48 h
Protocol: as §3, §4, §5

PA-1 cells = test: Cytotoxicity (cell titer glo, 72 h) ovarian cancer cell line PA-1; assay type: cell-based; conditions: Homo sapiens, PA-1 cell line
Protocol: as §1
5,000 cells/well were plated and incubated at 37° C. overnight. Conjugates/vehicle control dilutions were made in respective media and added to cells. Volume added: 50 uL to each well. […] Each concentration was analysed in triplicates. […] Cell titer glow reagent (volume: 50 uL) was added to each well, the plate was shaken for 5 mins and the luminescence was recorded. […] Percent viability was calculated by dividing the luminescence signal obtained for each treated well by the untreated well (media-only control) and multiplying by 100.

For `CC(=O)N[C@@H]1[C@@H](O[C@@H]2O[C@H](CO)[C@H](O)[C@H](O)[C@H]2O)[C@@H](O)[C@@H](CO)O[C@@H]1O` [T antigen, Galβ1-3GalNAcα], the “Estimated Kd” value [1] was 0.319 ug/m and the glycan binding [1] was “Main binding motifs”.
`COc1cc2c(cc1OCCCCCOc1cc3c(cc1OC)C(=O)N1C=C(C)C[C@H]1[C@H](O)N3C(=O)OCc1ccc(NC(=O)[C@H](C)NC(=O)[C@@H](NC(=O)CCOCCOCCOCCOCCOCCOCCOCCOCCNC(=O)CCN3C(=O)C=CC3=O)C(C)C)cc1)N=C[C@@H]1CC(C)=CN1C2=O` [Tesirine] was tested, and the IC50 [2] was 145 nM, the IC50 [3] was 13.4 nM and the “Percent cytotoxicity wrt control” value (AGS Stomach; 0.0001 μM) was 66.4%. For the same compound, the “Percent cytotoxicity wrt control” value (AGS Stomach; 0.01 μM) was 77.8%, the “Percent cytotoxicity wrt control” value (AGS Stomach; 0.1 μM) was 81.3% and the “Percent cytotoxicity wrt control” value (AGS Stomach; 1 μM) was 81.3%. For the same compound, the “Percent cytotoxicity wrt control” value (AGS Stomach; 10 μM) was 81.6%, the “Percent cytotoxicity wrt control” value (HT29 Colon; HT29, 0.0001 μM) was 37.4% and the “Percent cytotoxicity wrt control” value (HT29 Colon; HT29, 0.001 μM) was 44.5%. For the same compound, the “Percent cytotoxicity wrt control” value (HT29 Colon; HT29, 0.01 μM) was 47.7%, the “Percent cytotoxicity wrt control” value (HT29 Colon; HT29, 0.1 μM) was 48.3% and the “Percent cytotoxicity wrt control” value (HT29 Colon; HT29, 1 μM) was 49%. For the same compound, the IC50 (HT29 Colon; read-out: IC50 Values, HT29 Colon, after 48 h of treatment) was 20 nM, the “Percent cytotoxicity wrt control” value (KB Cervix; 0.0001 μM) was −9.5% and the “Percent cytotoxicity wrt control” value (KB Cervix; 0.001 μM) was 1%. The “Percent cytotoxicity wrt control” value (KB Cervix; 0.01 μM) was 76.2%, the “Percent cytotoxicity wrt control” value (KB Cervix; 0.1 μM) was 93.8% and the “Percent cytotoxicity wrt control” value (KB Cervix; 1 μM) was 89.1%. For the same compound, the “Percent cytotoxicity wrt control” value (KB Cervix; 10 μM) was 92.7%, the IC50 (KB Cervix; read-out: IC50 Values, KB Cervix, after 48 h of treatment) was 6 nM and the “Percent cytotoxicity wrt control” value (MDA-MB-231 Breast; MDA-MB-231, 0.001 μM) was 41.9%. The “Percent cytotoxicity wrt control” value (MDA-MB-231 Breast; MDA-MB-231, 1 μM) was 69.2%, the IC50 (MDA-MB-231 Breast; read-out: IC50 Values, MDA-MB-231 Breast, after 48 h of treatment) was 1.4 nM and the “Percent cytotoxicity wrt control” value (MG-63 Bone; MG-63, 0.0001 μM) was 46.6%. For the same compound, the “Percent cytotoxicity wrt control” value (MG-63 Bone; MG-63, 0.001 μM) was 69.4%, the “Percent cytotoxicity wrt control” value (MG-63 Bone; MG-63, 0.01 μM) was 81.2% and the “Percent cytotoxicity wrt control” value (MG-63 Bone; MG-63, 1 μM) was 82.3%. The IC50 (MG-63 Bone; read-out: IC50 Values, MG-63 Bone, after 48 h of treatment) was 0.03 nM, the “Percent cytotoxicity wrt control” value (PA-1 Ovary; PA-1, 0.001 μM) was 66.8% and the “Percent cytotoxicity wrt control” value (PA-1 Ovary; PA-1, 0.01 μM) was 79.1%. For the same compound, the “Percent cytotoxicity wrt control” value (PA-1 Ovary; PA-1, 1 μM) was 78.1%, the “Percent cytotoxicity wrt control” value (PA-1 Ovary; PA-1, 10 μM) was 80.5% and the IC50 (PA-1 Ovary; read-out: IC50 Values, PA-1 Ovary, after 48 h of treatment) was 0.00599 nM. The “Percent cytotoxicity wrt control” value (PANC-1 Pancreatic; PANC-1, 0.0001 μM) was 46.6%, the “Percent cytotoxicity wrt control” value (PANC-1 Pancreatic; PANC-1, 0.001 μM) was 51.1% and the “Percent cytotoxicity wrt control” value (PANC-1 Pancreatic; PANC-1, 0.01 μM) was 58.3%. For the same compound, the “Percent cytotoxicity wrt control” value (PANC-1 Pancreatic; PANC-1, 0.1 μM) was 55%, the “Percent cytotoxicity wrt control” value (PANC-1 Pancreatic; PANC-1, 10 μM) was 71% and the IC50 (PANC-1 Pancreatic; read-out: IC50 Values, PANC-1 Pancreatic, after 48 h of treatment) was 0.7 nM. For the same compound, the “Percent cytotoxicity wrt control” value (T24 Bladder; T24, 0.0001 μM) was 57.5%, the “Percent cytotoxicity wrt control” value (T24 Bladder; T24, 0.001 μM) was 60.6% and the “Percent cytotoxicity wrt control” value (T24 Bladder; T24, 0.01 μM) was 57.5%. The “Percent cytotoxicity wrt control” value (T24 Bladder; T24, 0.1 μM) was 61.4%, the “Percent cytotoxicity wrt control” value (T24 Bladder; T24, 1 μM) was 62.7% and the “Percent cytotoxicity wrt control” value (T24 Bladder; T24, 10 μM) was 80.4%. The IC50 (T24 Bladder; read-out: IC50 Values, T24 Bladder, after 48 h of treatment) was 2 nM, the “Percent cytotoxicity wrt control” value (U251 MG Brain; 0.001 μM) was 26.5% and the “Percent cytotoxicity wrt control” value (U251 MG Brain; 0.01 μM) was 23.1%. For the same compound, the “Percent cytotoxicity wrt control” value (U251 MG Brain; 0.1 μM) was 19.2%, the “Percent cytotoxicity wrt control” value (U251 MG Brain; 1 μM) was 27.2% and the “Percent cytotoxicity wrt control” value (U251 MG Brain; 10 μM) was 60.5%. For the same compound, the IC50 (U251 MG Brain; read-out: IC50 Values, U251 MG Brain, after 48 h of treatment) was 6820 nM, the “Percent cytotoxicity wrt control” value (A549 Lungs; A549, 0.0001 μM) was 13.7% and the “Percent cytotoxicity wrt control” value (A549 Lungs; A549, 0.1 μM) was 45.2%. For the same compound, the “Percent cytotoxicity wrt control” value (A549 Lungs; A549, 1 μM) was 53.3%, the “Percent cytotoxicity wrt control” value (A549 Lungs; A549, 10 μM) was 66.7% and the IC50 (A549 Lungs; read-out: IC50 Values, A549 Lungs, after 48 h of treatment) was 390 nM. For the same compound, the “Percent cytotoxicity wrt control” value (PBMC Normal; 0.0001 μM) was 16.9%, the “Percent cytotoxicity wrt control” value (PBMC Normal; 0.01 μM) was 40.3% and the “Percent cytotoxicity wrt control” value (PBMC Normal; 0.1 μM) was 38.7%. For the same compound, the “Percent cytotoxicity wrt control” value (PBMC Normal; 1 μM) was 38.2% and the IC50 (PBMC Normal; read-out: IC50 Values, PBMC Normal, after 48 h of treatment) was 5090 nM.
For `CC(=O)N[C@H]1[C@H](OC[C@H]2OC(O)[C@H](NC(C)=O)[C@@H](O[C@@H]3O[C@H](CO)[C@H](O)[C@H](O)[C@H]3O)[C@H]2O)O[C@H](CO)[C@@H](O)[C@@H]1O` (stereo partly shown) [core 2], the “Estimated Kd” value [1] was 0.212 ug/m and the glycan binding [1] was “Main binding motifs”.
`CC[C@H](C)[C@@H]([C@@H](CC(=O)N1CCC[C@H]1[C@H](OC)[C@@H](C)C(=O)N[C@H](C)[C@@H](O)c1ccccc1)OC)N(C)C(=O)[C@@H](NC(=O)[C@H](C(C)C)N(C)C(=O)OCc1ccc(NC(=O)[C@H](CCCNC(N)=O)NC(=O)[C@@H](NC(=O)CCCCCN2C(=O)C=CC2=O)C(C)C)cc1)C(C)C` [mc-vc-PAB-MMAE] ({Hexanoyl(6-maleimido)}-V[Cit][PABC][NMeV]V[Dil][Dolaproine]-X1) was tested, and the IC50 [3] was 647 nM and the IC50 (PA-1 cells) was 647 nM.
With Sialyl T antigen the “Estimated Kd” value [1] was 0.670 to 1.756 ug/m and the glycan binding [1] was “Main binding motifs”.
